From patent publication US9957278B2, “Furopyridine compounds for the treatment of hepatitis C” (BRISTOL-MYERS SQUIBB COMPANY, priority 2014, dated 2018)
Where two headings read alike, the source gives them in different places.

System: genotype 1b (Con-1) HCV replicon
Test: HCV Replicon Luciferase Assay (genotype 1b)
Format: cell-based
Conditions: Hepatitis C virus, 72 h, genotype 1b replicon in Huh-7 cells, Renilla luciferase, 3 days incubation
Protocol: The cell lines used to evaluate compounds consist of a human hepatocyte derived cell line (Huh-7) that constitutively expresses a genotype 1b (Con-1) HCV replicon or a genotype 1b (Con-1) HCV replicon with an asparagine replacing the cysteine at amino acid 316, or a genotype 2a (JFH-1) replicon, containing a Renilla luciferase reporter gene. These cells were maintained in Dulbecco's modified Eagle medium (DMEM) containing 10% FBS, 100 U/mL penicillin/streptomycin and 1.0 mg/mL G418.
To evaluate compound efficacy, titrated compounds were transferred to sterile 384-well tissue culture treated plates, and the plates were seeded with HCV replicon cells (50 μL at a density of 2.4×10^3 cells/well) in DMEM containing 4% FBS (final DMSO concentration at 0.5%). After 3 days incubation at 37° C., cells were analyzed for Renilla Luciferase activity using the EnduRen substrate (Promega cat #E6485) according to the manufacturer's directions. Briefly, the EnduRen substrate was diluted in DMEM and then added to the plates to a final concentration of 7.5 μM. The plates were incubated for at least 1 h at 37° C. then read on a Viewlux Imager (PerkinElmer) using a luminescence program. The 50% effective concentration (EC50) was calculated using the four-parameter logistic formula noted above.
Compound EC50 data is expressed as A: <100 nM; B=100-1000 nM; C>1000 nM).

SMILES	EC50 (read-out: EC50 1b (class)) [µM]	EC50 (read-out: EC50 (uM) 1b) [µM]
CNC(=O)c1c(-c2ccc(F)cc2)oc2nc(Cl)c(-c3ccc(OC)c(C(=O)NCC(F)(F)C(F)(F)C(F)(F)F)c3)cc12 [Compound 10001]	0.1 to 1	0.149
C#CC(C)(C)NC(=O)c1cc(-c2cc3c(C(=O)NC)c(-c4ccc(F)cc4)oc3nc2Cl)ccc1OC [Compound 10002]	< 0.1	0.0362
CNC(=O)c1c(-c2ccc(F)cc2)oc2nc(Cl)c(-c3ccc(OC)c(C(=O)NC(CF)(CF)CF)c3)cc12 [Compound 10003]	0.1 to 1	–
CNC(=O)c1c(-c2ccc(F)cc2)oc2nc(Cl)c(-c3cccc(C(=O)NC(CF)(CF)CF)c3)cc12 [Compound 11001]	0.1 to 1	–
CNC(=O)c1c(-c2ccc(F)cc2)oc2nc(CCC(F)(F)F)c(-c3cccc(C(=O)NC(C)(C)C(F)(F)F)c3)cc12 [Compound 20001]	< 0.1	0.0063
CNC(=O)c1c(-c2ccc(F)cc2)oc2nc(CCC(F)(F)F)c(-c3cccc(C(=O)NC(CF)(CF)CF)c3)cc12 [Compound 20002]	< 0.1	–
C#CC(C)(C)NC(=O)c1cccc(-c2cc3c(C(=O)NC)c(-c4ccc(F)cc4)oc3nc2CCC(F)(F)F)c1 [Compound 20003]	< 0.1	0.004
CNC(=O)c1c(-c2ccc(F)cc2)oc2nc(CCC(F)(F)F)c(-c3cccc(C(=O)NC(C)C(F)(F)F)c3)cc12 (stereo not drawn) [Compound 20004]	< 0.1	–
CCC(NC(=O)c1cccc(-c2cc3c(C(=O)NC)c(-c4ccc(F)cc4)oc3nc2CCC(F)(F)F)c1)C(F)(F)F (stereo not drawn) [Compound 20005]	< 0.1	–
CNC(=O)c1c(-c2ccc(F)cc2)oc2nc(CCC(F)(F)F)c(-c3cccc(C(=O)N[C@@H](CO)C4CC4)c3)cc12 [Compound 20006]	< 0.1	–
CNC(=O)c1c(-c2ccc(F)cc2)oc2nc(CCC(F)(F)F)c(-c3cccc(C(=O)NC(C)(C)C4CC4)c3)cc12 [Compound 20007]	< 0.1	–
CNC(=O)c1c(-c2ccc(F)cc2)oc2nc(CCC(F)(F)F)c(-c3cccc(C(=O)NC(C4CC4)C4CC4)c3)cc12 [Compound 20008]	< 0.1	–
CC[C@@H](NC(=O)c1cccc(-c2cc3c(C(=O)NC)c(-c4ccc(F)cc4)oc3nc2CCC(F)(F)F)c1)C1CC1 [Compound 20009]	< 0.1	0.01
CC[C@H](NC(=O)c1cccc(-c2cc3c(C(=O)NC)c(-c4ccc(F)cc4)oc3nc2CCC(F)(F)F)c1)C1CC1 [Compound 20010]	< 0.1	–
CNC(=O)c1c(-c2ccc(F)cc2)oc2nc(CCC(F)(F)F)c(-c3cccc(C(=O)N[C@@H](C)C4CC4)c3)cc12 [Compound 20011]	< 0.1	–
CNC(=O)c1c(-c2ccc(F)cc2)oc2nc(CCC(F)(F)F)c(-c3cccc(C(=O)N[C@H](C)C4CC4)c3)cc12 [Compound 20012]	< 0.1	–
CNC(=O)c1c(-c2ccc(F)cc2)oc2nc(CCC(F)(F)F)c(-c3cccc(C(=O)NC(C)C4CC4)c3)cc12 (stereo not drawn) [Compound 20013]	< 0.1	–
CNC(=O)c1c(-c2ccc(F)cc2)oc2nc(CCC(F)(F)F)c(-c3cccc(C(=O)N[C@@H](COC)C4CC4)c3)cc12 [Compound 20014]	< 0.1	–
CNC(=O)c1c(-c2ccc(F)cc2)oc2nc(CCC(F)(F)F)c(-c3cccc(C(=O)N[C@H](COC)C4CC4)c3)cc12 [Compound 20015]	< 0.1	0.0056
CNC(=O)c1c(-c2ccc(F)cc2)oc2nc(CCC(F)(F)F)c(-c3cccc(C(=O)NC(COC)C4CC4)c3)cc12 (stereo not drawn) [Compound 20016]	< 0.1	0.0217
CNC(=O)c1c(-c2ccc(F)cc2)oc2nc(CCC(F)(F)F)c(-c3cccc(C(=O)NC(c4ccccc4)C4CC4)c3)cc12 (stereo not drawn) [Compound 20017]	< 0.1	–
CNC(=O)c1c(-c2ccc(F)cc2)oc2nc(CCC(F)(F)F)c(-c3cccc(C(=O)N4CC5(CCC5C(=O)OC)C4)c3)cc12 (stereo not drawn) [Compound 20018]	0.1 to 1	0.11
CNC(=O)c1c(-c2ccc(F)cc2)oc2nc(CCC(F)(F)F)c(-c3cccc(C(=O)NCC(F)(F)F)c3)cc12 [Compound 20019]	< 0.1	–
CNC(=O)c1c(-c2ccc(F)cc2)oc2nc(CCC(F)(F)F)c(-c3cccc(C(=O)NC4CCNC4=O)c3)cc12 (stereo not drawn) [Compound 20020]	< 0.1	0.0519
CNC(=O)c1c(-c2ccc(F)cc2)oc2nc(CCC(F)(F)F)c(-c3cccc(C(=O)NCC(F)F)c3)cc12 [Compound 20021]	< 0.1	–
CNC(=O)c1c(-c2ccc(F)cc2)oc2nc(CCC(F)(F)F)c(-c3cccc(C(=O)NCC(F)(F)C(F)(F)F)c3)cc12 [Compound 20022]	< 0.1	0.0059

SMILES	EC50 (read-out: EC50 1b (class)) [µM]	EC50 (read-out: EC50 (uM) 1b) [µM]
CNC(=O)c1c(-c2ccc(F)cc2)oc2nc(CCC(F)(F)F)c(-c3cccc(C(=O)NC(C)(C)C(=O)OC)c3)cc12 [Compound 20023]	< 0.1	–
CNC(=O)c1c(-c2ccc(F)cc2)oc2nc(CCC(F)(F)F)c(-c3cccc(C(=O)NC(C)(C)CF)c3)cc12 [Compound 20025]	< 0.1	–
CNC(=O)c1c(-c2ccc(F)cc2)oc2nc(CCC(F)(F)F)c(-c3cccc(C(=O)NCC(C)(C)CO)c3)cc12 [Compound 20026]	< 0.1	0.0043
CNC(=O)c1c(-c2ccc(F)cc2)oc2nc(CCC(F)(F)F)c(-c3cccc(C(=O)NC(C)(CO)CO)c3)cc12 [Compound 20027]	< 0.1	–
CCOC(=O)C(C)(C)NC(=O)c1cccc(-c2cc3c(C(=O)NC)c(-c4ccc(F)cc4)oc3nc2CCC(F)(F)F)c1 [Compound 20029]	< 0.1	–
CNC(=O)c1c(-c2ccc(F)cc2)oc2nc(CCC(F)(F)F)c(-c3cccc(C(=O)NCC(C)(C)C)c3)cc12 [Compound 20030]	< 0.1	–
CNC(=O)c1c(-c2ccc(F)cc2)oc2nc(CCC(F)(F)F)c(-c3cccc(C(=O)NC4CCOCC4)c3)cc12 [Compound 20031]	< 0.1	0.0136
CNC(=O)c1c(-c2ccc(F)cc2)oc2nc(CCC(F)(F)F)c(-c3cccc(C(=O)NCC4(COC)CC4)c3)cc12 [Compound 20032]	< 0.1	–
CNC(=O)c1c(-c2ccc(F)cc2)oc2nc(CCC(F)(F)F)c(-c3cccc(C(=O)NCC(C)(C)COC)c3)cc12 [Compound 20033]	< 0.1	–
CNC(=O)c1c(-c2ccc(F)cc2)oc2nc(CCC(F)(F)F)c(-c3cccc(C(=O)NC4CCOC4)c3)cc12 (stereo not drawn) [Compound 20034]	< 0.1	0.0118
CNC(=O)c1c(-c2ccc(F)cc2)oc2nc(CCC(F)(F)F)c(-c3cccc(C(=O)NCC(C)(F)F)c3)cc12 [Compound 20035]	< 0.1	–
CNC(=O)c1c(-c2ccc(F)cc2)oc2nc(CCC(F)(F)F)c(-c3cccc(C(=O)NC(C)(C)CCO)c3)cc12 [Compound 20036]	< 0.1	–
CNC(=O)c1c(-c2ccc(F)cc2)oc2nc(CCC(F)(F)F)c(-c3cccc(C(=O)NCC(F)(F)C(F)(F)C(F)(F)F)c3)cc12 [Compound 20037]	< 0.1	0.0106
C#CC(C)(C)NC(=O)c1cc(-c2cc3c(C(=O)NC)c(-c4ccc(F)cc4)oc3nc2CCC(F)(F)F)ccc1OC [Compound 21001]	< 0.1	–
CNC(=O)c1c(-c2ccc(F)cc2)oc2nc(CCC(F)(F)F)c(-c3ccc(OC)c(C(=O)NCC(F)(F)C(F)(F)C(F)(F)F)c3)cc12 [Compound 21002]	< 0.1	–
CNC(=O)c1c(-c2ccc(F)cc2)oc2nc(CCC(F)(F)F)c(-c3ccc(OC)c(C(=O)NC(CF)(CF)CF)c3)cc12 [Compound 21003]	< 0.1	–
CNC(=O)c1c(-c2ccc(F)cc2)oc2nc(CCC(F)(F)F)c(-c3ccc(F)c(C(=O)NC(C)C(F)(F)F)c3)cc12 (stereo not drawn) [Compound 22001]	< 0.1	0.0108
CCC(NC(=O)c1cc(-c2cc3c(C(=O)NC)c(-c4ccc(F)cc4)oc3nc2CCC(F)(F)F)ccc1F)C(F)(F)F (stereo not drawn) [Compound 22002]	< 0.1	–
CNC(=O)c1c(-c2ccc(F)cc2)oc2nc(CCC(F)(F)F)c(-c3ccc(F)c(C(=O)NC(C)(C)C(F)(F)F)c3)cc12 [Compound 22003]	< 0.1	–
CNC(=O)c1c(-c2ccc(F)cc2)oc2nc(NCC(F)(F)F)c(-c3cccc(C(=O)NC(CF)(CF)CF)c3)cc12 [Compound 30001]	< 0.1	–
C#CC(C)(C)NC(=O)c1cccc(-c2cc3c(C(=O)NC)c(-c4ccc(F)cc4)oc3nc2NCC(F)(F)F)c1 [Compound 30002]	< 0.1	0.0037
CNC(=O)c1c(-c2ccc(F)cc2)oc2nc(NCC(F)(F)F)c(-c3cccc(C(=O)NC(C)C(F)(F)F)c3)cc12 (stereo not drawn) [Compound 30004]	< 0.1	–
CCC(NC(=O)c1cccc(-c2cc3c(C(=O)NC)c(-c4ccc(F)cc4)oc3nc2NCC(F)(F)F)c1)C(F)(F)F (stereo not drawn) [Compound 30005]	< 0.1	–
CNC(=O)c1c(-c2ccc(F)cc2)oc2nc(NCC(F)(F)F)c(-c3cccc(C(=O)NC(C)(C)C(F)(F)F)c3)cc12 [Compound 30006]	< 0.1	0.0053
CNC(=O)c1c(-c2ccc(F)cc2)oc2nc(NCC(F)(F)F)c(-c3cccc(C(=O)NC(C4CC4)C(F)(F)F)c3)cc12 (stereo not drawn) [Compound 30007]	< 0.1	–
CNC(=O)c1c(-c2ccc(F)cc2)oc2nc(NCC(F)(F)F)c(-c3cccc(C(=O)NC4(C(=O)OC)CC4)c3)cc12 [Compound 30008]	< 0.1	–
